This experiment concerns the target T1, sodium-proton exchanger of subtype 3 (NHE3) (Homo sapiens, UniProt P48764).
T1 construct: expressed in transfected cells
T1 sequence (P48764 26-834): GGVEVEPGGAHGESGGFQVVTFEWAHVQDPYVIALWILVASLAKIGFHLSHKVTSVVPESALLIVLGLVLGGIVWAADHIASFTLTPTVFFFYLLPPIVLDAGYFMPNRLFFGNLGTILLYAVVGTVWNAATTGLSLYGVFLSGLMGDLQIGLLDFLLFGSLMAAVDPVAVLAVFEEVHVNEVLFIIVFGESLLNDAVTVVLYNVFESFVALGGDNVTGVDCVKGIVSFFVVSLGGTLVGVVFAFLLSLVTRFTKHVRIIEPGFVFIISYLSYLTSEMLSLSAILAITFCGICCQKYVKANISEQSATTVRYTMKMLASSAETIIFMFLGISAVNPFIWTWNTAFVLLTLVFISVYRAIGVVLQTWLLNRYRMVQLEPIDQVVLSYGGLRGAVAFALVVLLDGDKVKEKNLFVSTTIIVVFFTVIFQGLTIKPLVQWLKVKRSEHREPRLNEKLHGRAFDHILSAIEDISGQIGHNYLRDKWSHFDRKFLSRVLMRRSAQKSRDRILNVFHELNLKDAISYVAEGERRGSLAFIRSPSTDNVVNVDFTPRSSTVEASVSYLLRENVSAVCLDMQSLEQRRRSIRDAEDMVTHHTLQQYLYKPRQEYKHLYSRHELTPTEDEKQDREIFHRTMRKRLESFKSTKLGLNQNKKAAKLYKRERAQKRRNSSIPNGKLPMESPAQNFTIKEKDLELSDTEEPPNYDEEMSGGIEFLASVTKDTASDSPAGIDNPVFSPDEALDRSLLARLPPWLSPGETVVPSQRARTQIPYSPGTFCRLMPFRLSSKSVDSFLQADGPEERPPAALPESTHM
The experiment can be described thus: Recovery of intracellular pH (pHi) after acidification in LAP1 cells stably expressing NHE3 (BCECF fluorescence, FLIPR). In kind it is cell-based. To be noted: LAP1 cells stably expressing NHE3; pH recovery after acidification; range 1 is % inhibition at 10 μM; read-out: Activity range (inhibitory effect on NHE3).

Molecules are shown by their SMILES. Bounds are passed on as bounds.

Take `c1ccc2c(c1)C[C@@H](N1C[C@H]3CNC[C@H]3C1)[C@@H]2Oc1ccc2cc[nH]c2c1` (racemic) [Example 587, 6-[rac-trans-(1,2)-2-(Hexahydropyrrolo[3,4-c]pyrrol-2-yl)indan-1-yloxy]-1H-indole]: the IC50 is 1 to 10 µM.

On to `CN(C)S(=O)(=O)c1ccc(OC2c3ccccc3CC2N2CCC[C@@H](N)C2)c(Cl)c1Cl` (mixture of isomers) [Example 520, 4-[rac-trans-(1,2)-2-((R)-3-aminopiperidin-1-yl)indan-1-yloxy]-2,3-dichloro-N,N-dimethylbenzenesulfonamide], for which the IC50 was < 1 µM.

Consider `CC(=O)Nc1cccc(O[C@H]2c3cc(Cl)cc(Cl)c3C[C@@H]2N2CCCNCC2)c1` (racemic) [Example 644, N-[3-(rac-trans-(1,2)-4,6-dichloro-2-[1,4]diazepan-1-ylindan-1-yloxy)phenyl]acetamide], for which the IC50 was < 1 µM.

Regarding `N[C@@H]1CCCN([C@H]2CCc3ccccc3[C@@H]2Oc2ccc(N3CCNCC3)cc2)C1` (racemic) [Example 75, (R)-1-[rac-trans-(1,2)-1-(4-piperazin-1-ylphenoxy)-1,2,3,4-tetrahydronaphthalen-2-yl]piperidin-3-ylamine], the inhibition at 10 µM is 20 to 50%.

On to `N#Cc1ccc(O[C@H]2c3ccccc3CC[C@@H]2N2CCC[C@H](N)C2)c(F)c1F` (racemic) [Example 528, 4-[rac-trans-(1,2)-2-((S)-3-aminopiperidin-1-yl)-1,2,3,4-tetrahydronaphthalen-1-yloxy]-2,3-difluorobenzonitrile], for which the IC50 was 1 to 10 µM.

As for `O=C1CCCN1c1ccc(Cl)c(O[C@H]2c3cc(Cl)cc(F)c3C[C@@H]2N2CC[C@@H](O)C2)c1` [Example 341, 1-{4-chloro-3-[(1S,2S)-6-chloro-4-fluoro-2-((R)-3-hydroxypyrrolidin-1-yl)indan-1-yloxy]phenyl}pyrrolidin-2-one], the IC50 was < 1 µM.

`Cc1cc(C)n(-c2ccc(O[C@H]3c4cc(Cl)cc(Cl)c4C[C@@H]3N3CC[C@@H](O)C3)c(F)c2)n1` [Example 136, (R)-1-{trans-(1S,2S)-4,6-dichloro-1-[4-(3,5-dimethylpyrazol-1-yl)-2-fluorophenoxy]indan-2-yl}pyrrolidin-3-ol]: the inhibition at 10 µM is 20 to 50%.

For the compound `NC(=O)c1cccc(O[C@H]2c3ccccc3CC[C@@H]2N2CCC[C@H](N)C2)c1` (racemic) [Example 412, 3-[rac-trans-(1,2)-2-((S)-3-aminopiperidin-1-yl)-1,2,3,4-tetrahydronaphthalen-1-yloxy]benzamide], the inhibition at 10 µM lay in the range of 20 to 50%.

As to `Cc1nnc(C)n1-c1ccc(O[C@H]2c3cc(Cl)cc(F)c3C[C@@H]2N2CC[C@@H](O)C2)c(F)c1` [Example 142, (R)-1-{trans-(1S,2S)-6-chloro-1-[4-(3,5-dimethyl-[1,2,4]triazol-4-yl)-2-fluorophenoxy]-4-fluoroindan-2-yl}pyrrolidin-3-ol], the IC50 was < 1 µM.

Regarding `N#Cc1ccc(O[C@H]2c3ccccc3CC[C@@H]2N2CCC[C@@H](N)C2)c(F)c1` (racemic) [Example 515, 4-[rac-trans-(1,2)-2-((R)-3-aminopiperidin-1-yl)-1,2,3,4-tetrahydronaphthalen-1-yloxy]-3-fluorobenzonitrile], the IC50 is 1 to 10 µM.

Regarding `N#Cc1ccc(O[C@H]2c3cc(Cl)cc(Cl)c3C[C@@H]2N2CCC[C@@H](N)C2)c(F)c1` [Example 479, 4-[(1S,2S)-2-((R)-3-aminopiperidin-1-yl)-4,6-dichloroindan-1-yloxy]-3-fluorobenzonitrile], the IC50 was < 1 µM.

Regarding `NC(=O)c1ccccc1O[C@H]1c2ccccc2CC[C@@H]1N1CCC[C@@H](N)C1` (racemic) [Example 368, 2-[rac-trans-(1,2)-2-((R)-3-aminopiperidin-1-yl)-1,2,3,4-tetrahydronaphthalen-1-yloxy]benzamide], the IC50 fell in the range of 1 to 10 µM.

With `Cc1nnc(C)n1-c1cccc(O[C@H]2c3ccccc3C[C@@H]2N2CCCC2)c1` (racemic) [Example 404, 3,5-dimethyl-4-[3-(rac-trans-(1,2)-2-pyrrolidin-1-ylindan-1-yloxy)phenyl]-4H-[1,2,4]triazole], the inhibition at 10 µM fell in the range of 20 to 50%.

Source of the values: US8822449B2, “Substituted aminoindanes and analogs thereof, and the pharmaceutical use thereof” (Sanofi, priority 2008, dated 2014).
